Measurements reported in patent publication US11591342B2, “Heterocyclic compound, application thereof and pharmaceutical composition comprising same” (SUZHOU SINOVENT PHARMACEUTICALS CO., LTD., priority 2018, dated 2023).

Experiments:
CYP3A4 = CYP3A4 (Homo sapiens (Human), UniProt P08684); assay: Time-dependent inhibition of CYP3A4 (TDI assay, human liver microsomes); type: in vitro ADME; settings: for CYP3A4 TDI % @ 10 μM: human liver microsomes, Midazolam substrate, 30 min with NADPH vs 0 min; for time-dependent inhibition on CYP3A4 (conclusion): conclusion drawn from Table 3, 10 μM
Sequence of CYP3A4 (P08684 whole entry): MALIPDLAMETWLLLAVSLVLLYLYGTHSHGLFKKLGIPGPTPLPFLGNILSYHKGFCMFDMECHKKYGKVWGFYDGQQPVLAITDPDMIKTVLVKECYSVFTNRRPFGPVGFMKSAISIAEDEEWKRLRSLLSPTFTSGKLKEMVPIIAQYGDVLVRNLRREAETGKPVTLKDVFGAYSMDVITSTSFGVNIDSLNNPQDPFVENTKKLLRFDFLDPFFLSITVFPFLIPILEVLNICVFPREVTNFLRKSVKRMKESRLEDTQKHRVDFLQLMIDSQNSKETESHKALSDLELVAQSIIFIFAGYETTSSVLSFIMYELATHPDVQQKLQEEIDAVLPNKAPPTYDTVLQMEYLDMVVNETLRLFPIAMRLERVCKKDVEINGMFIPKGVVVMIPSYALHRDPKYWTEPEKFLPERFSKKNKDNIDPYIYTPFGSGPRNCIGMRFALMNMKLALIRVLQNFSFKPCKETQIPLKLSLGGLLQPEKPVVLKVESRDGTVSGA
Protocol: Effect Example 3. Time-Dependent Inhibition of CYP3A4
1. Preheating potassium phosphate buffer (K-buffer), pH 7.4: 100 mM potassium phosphate buffer (K-buffer) was prepared by mixing 9.5 mL of solution A with 40.5 mL of solution B, diluting to 500 mL with ultrapure water, and then adjusting to pH 7.4 with KOH or H3PO4, wherein the solution A (1M potassium dihydrogenphosphate) was prepared by dissolving 136.5 g of potassium dihydrogenphosphate in […] of ultrapure water.
2. Preparation of human liver microsome suspension (1.3 mg/mL, 1.3×, stock: 20 mg/mL): 100 μL of human liver microsome suspension (20 mg/mL) was added into […] of K-buffer.
3. Preparation of NADPH solution (4.167 mg/mL, 5 mM): 8.3 mg of NADPH was added into 2 mL of buffer.
4. Preparation of substrate solution (1.5× final): 1.5 μL of 10 mM Midazolam was added to 998.5 μL of K-buffer to yield the substrate mixture.
5. Preparation of 100× test compound, reference and blank control solutions: 3 μL of 10 mM stock solution of test compound was added to 27 μL of ACN; 3 μL of positive control stock solution was added to 27 μL of ACN; and 3 μL of DMSO was added to 27 μL of ACN to serve as blank control.
6. Primary preheating system: An NADPH-free system for 0 min incubation: 78 μL of 1.3× human liver microsome solution (step 2) was mixed with 1 μL of the 100× stock solutions of positive control, test compound, or blank control (step 5); A system containing NADPH for 30 min incubation: 78 μL of 1.3× human liver microsome solution (step 2) was mixed with 1 μL of the 100× stock solutions of positive control, test compound, or blank control (step 5).
7. Secondary preheating system: 150 μL of the substrate solution prepared in step 4 was added into a deep well plate together with the NADPH solution from step 3
8. The samples were preheated for 10 min in a 37° C. water bath.
9. Reaction procedure: (1) reaction for 0 min: 21 μL of K-buffer was added to the primary preheating system and mixed well without incubation; 20 μL of the mixture was immediately transferred into the plate of the secondary preheating system; after mixing, the secondary system was incubated in a 37° C. water bath for 15 min, and 60 μL of the reaction mixture was added into 120 μL of acetonitrile containing internal standard to terminate the reaction; and (2) reaction for 30 min: 21 μL of NADPH was added into the primary preheating system for a 30-min incubation after mixing; 20 μL of the mixture was added into the secondary preheating system prior to mixing; the mixture was incubated in a 37° C. water bath for 15 min, and 60 μL of the reaction mixture was added into 120 μL of acetonitrile containing internal standard to terminate the reaction.
10. After termination, the samples were shaken on a shaker at 600 rpm for 10 min and centrifuged at 5594 g for 15 min prior to LC-MS/MS analysis.

Autotaxin (ATX) = Autotaxin (ATX) (Homo sapiens (Human), UniProt Q13822); assay: ATX bioactivity assay (Amplex Red / choline oxidase / HRP fluorescence, LPC 16:0 substrate); type: biochemical; settings: 30 min room temperature
Protocol: Effect Example 1 Bioactivity Assay
Preparation and Treatment
Stock Solution Preparation
A 10 mM DMSO stock solution was formulated for each compound. A 30 mM DMSO stock solution was formulated for positive control HA130.
The DMSO stock solutions were stored at room temperature in a desiccator for a short period of time or at −20° C. for a long period of time.
All compounds were serially 3-fold diluted in DMSO from 10 μM to the 10th concentration.
A 1000× positive control (10 mM, HA130) and a 1000× negative control (100% DMSO) were prepared.
The plates were shaken for 5 min.
Preparation of 1× Reaction Buffer:
5× reaction buffer and cold water were mixed well in a volume ratio of 1:4.
Preparation of 20 U/mL Choline Oxidase Stock Solution:
1 tube of choline oxide in a kit was dissolved in 1× reaction buffer. The aliquots were frozen at −20° C.
Preparation of 200 U/mL Horseradish Peroxidase (HRP) Stock Solution:
1 tube of HRP in a kit was dissolved in 1 mL of 1× reaction buffer. The aliquots were frozen at −20° C.
Preparation of 20 mM Amplex® Red Reagent (for Detection) Stock Solution
Amplex Red reagent and DMSO were equilibrated at room temperature. 1 tube of Amplex Red reagent in a kit was dissolved in 200 μL of DMSO.
a) 2×ATX ([…]), 2×HRP ([…]), 2× choline oxidase (0.2 U/mL) were added to 1× reaction buffer.
b) 20 μL of the reaction mixture was added to the plate (PE, 6007270) (refer to step a).
c) 40 nL of diluent was added to the plate using Echo (refer to “Preparation”).
d) 2×LPC (16:0) (60 mM) and 2× Amplex® Red ([…]) were prepared using 1× reaction buffer.
e) 20 μL of the mixture was added to the plate (refer to step d).
f) The plate was shaken for 30 s and allowed to stand at room temperature for 30 min.
g) The plate was examined using Envision, and the procedure was as follows: Excitation at 530 nm; and Emission at 590 nm.
Formula for Calculating % Inhibition (Percent Inhibition Rate) as Follows:
FLU: Fluorescence (fluorescence reading)
FLUpositive: Average fluorescence value in positive control wells (10 μM HA130) in the plate.
FLUvehicle: Average fluorescence value in negative control wells (0.1% DMSO) in the plate.
Calculation of IC50 and Dose-Response Curve:
IC50 of the compounds was calculated via a non-linear regression line (dose-variable slope) fitted using % inhibition and log of compound concentration. The software used was Graphpad 5.0. Y=Bottom+(Top−Bottom)/(1+10^((Log IC50−X)×Hill Slope))
X: log of inhibitor concentration

Structure (SMILES): CCn1nc2cnc(N3CCN(CC(=O)N4CC(O)C4)CC3)cc2c1N(C)c1nc(-c2ccc(F)cc2)c(C#N)s1 [Compound S-0044, 2-((2-ethyl-5-(4-(2-(3-hydroxyazetidin-1-yl)-2-oxoethyl)piperazin-1-yl)-2H-pyrazolo[3,4-c]pyridin-3-yl)(methyl)amino)-4-(4-fluorophenyl) thiazole-5-carbonitrile]
- CYP3A4 TDI % @ 10 μM (CYP3A4): 15.3%
- time-dependent inhibition on CYP3A4 (conclusion) (CYP3A4): no time-dependent inhibition on CYP3A4

Structure (SMILES): CCc1nn2ccc(N3CCN(CC(=O)N4CC(O)C4)C(=O)C3)nc2c1N(C)c1nc(-c2ccc(F)cc2)c(C#N)s1 [Compound S-0104CP, 2-((2-ethyl-5-(4-(2-(3-hydroxyazetidin-1-yl)-2-oxoethyl)-3-oxopiperazin-1-yl)pyrazolo[1,5-a]pyrimidin-3-yl)(methyl)amino)-4-(4-fluorophenyl)thiazole-5-carbonitrile]
- IC50 (Autotaxin (ATX)): 256 nM

Structure (SMILES): CCc1nn2ccc(N3CCN(CC(=O)N4CC(O)C4)CC3)nc2c1N(C)c1nc(-c2ccc(F)c(F)c2)c(C#N)s1 [Compound S-0121, 4-(3,4-difluorophenyl)-2-((2-ethyl-5-(4-(2-(3-hydroxyazetidin-1-yl)-2-oxoethyl)piperazin-1-yl)pyrazolo[1,5-a]pyrimidin-3-yl)(methyl)amino)thiazole-5-carbonitrile]
- IC50 (Autotaxin (ATX)): 61 nM

Structure (SMILES): CCc1nn2c(C)cc(N3CCN(CC(=O)N4CC(O)C4)CC3)nc2c1N(C)c1nc(-c2ccc(F)c(F)c2)c(C#N)s1 [Compound S-0068, 4-(3,4-difluorophenyl)-2-((2-ethyl-5-(4-(2-(3-hydroxyazetidin-1-yl)-2-oxoethyl)piperazin-1-yl)-7-methylpyrazolo[1,5-a]pyrimidin-3-yl)(methyl)amino) thiazole-5-carbonitrile]
- IC50 (Autotaxin (ATX)): 107 nM

Structure (SMILES): CN(c1nc(-c2ccc(F)cc2)c(C#N)s1)c1c2cc(N3CCN(CC(=O)N4CC(O)C4)CC3)cc(F)c2nn1C1CC1 [Compound S-0126, 2-((2-cyclopropyl-7-fluoro-5-(4-(2-(3-hydroxyazetidin-1-yl)-2-oxoethyl)piperazin-1-yl)-2H-indazol-3-yl)(methyl)amino)-4-(4-fluorophenyl)thiazole-5-carbonitrile]
- IC50 (Autotaxin (ATX)): 100 nM

Structure (SMILES): CCc1nn2ccc(N3CCN(CC(=O)N4CC(O)C4)CC3)nc2c1N(CC)c1nc(-c2ccc(F)cc2)c(C#N)s1 [Compound S-0082, 2-(ethyl(2-ethyl-5-(4-(2-(3-hydroxyazetidin-1-yl)-2-oxoethyl)piperazin-1-yl)pyrazolo[1,5-a]pyrimidin-3-yl)amino)-4-(4-fluorophenyl)thiazole-5-carbonitrile]
- IC50 (Autotaxin (ATX)): 20 nM

Structure (SMILES): CCn1nc2c(C)cc(N3CCN(CC(=O)N4CC(O)C4)CC3)nc2c1N(CC(F)(F)F)c1nc(-c2ccc(F)cc2)c(C#N)s1 [Compound S-0140, 2-((2-ethyl-5-(4-(2-(3-hydroxyazetidin-1-yl)-2-oxoethyl)piperazin-1-yl)-7-methyl-2H-pyrazolo[4,3-b]pyridin-3-yl)(2,2,2-trifluoroethyl)amino)-4-(4-fluorophenyl)thiazole-5-carbonitrile]
- IC50 (Autotaxin (ATX)): 325 nM

Structure (SMILES): CCn1nc2ncc(N3CCN(CC(=O)N4CC(O)C4)CC3)cc2c1N(C)c1nc(-c2ccc(F)cc2)c(C#N)s1 [Compound S-0043, 2-((2-ethyl-5-(4-(2-(3-hydroxyazetidin-1-yl)-2-oxoethyl)piperazin-1-yl)-2H-pyrazolo[3,4-b]pyridin-3-yl)(methyl)amino)-4-(4-fluorophenyl)thiazole-5-carbonitrile]
- CYP3A4 TDI % @ 10 μM (CYP3A4): 12.38%
- time-dependent inhibition on CYP3A4 (conclusion) (CYP3A4): no time-dependent inhibition on CYP3A4

Structure (SMILES): CC(C)n1nc2c(F)cc(N3CCN(CC(=O)N4CC(O)C4)CC3)cc2c1N(C)c1nc(-c2ccc(F)cc2)c(C#N)s1 [Compound S-0125, 2-((7-fluoro-5-(4-(2-(3-hydroxyazetidin-1-yl)-2-oxoethyl)piperazin-1-yl)-2-isopropyl-2H-indazol-3-yl)(methyl)amino)-4-(4-fluorophenyl)thiazole-5-carbonitrile]
- IC50 (Autotaxin (ATX)): 178 nM

Structure (SMILES): CCc1nn2c(C)cc(N3CCN(CC(=O)N4CC(O)C4)C[C@H]3C)nc2c1N(C)c1nc(-c2ccc(F)cc2)c(C#N)s1 [Compound S-0070, (R)-2-((2-ethyl-5-(4-(2-(3-hydroxyazetidin-1-yl)-2-oxoethyl)-2-methylpiperazine-1-yl)-7-methylpyrazolo[1,5-a]pyrimidin-3-yl)(methyl)amino)-4-(4-fluorophenyl)thiazole-5-carbonitrile]
- IC50 (Autotaxin (ATX)): 36 nM

Structure (SMILES): CCc1nn2ccc(N3CCN(CC(=O)N4CC(C)(O)C4)CC3)nc2c1N(C)c1nc(-c2ccc(F)cc2)c(C#N)s1 [Compound S-0120, 2-((2-ethyl-5-(4-(2-(3-hydroxy-3-methylazetidin-1-yl)-2-oxoethyl)piperazin-1-yl)pyrazolo[1,5-a]pyrimidin-3-yl)(methyl)amino)-4-(4-fluorophenyl)thiazole-5-carbonitrile]
- IC50 (Autotaxin (ATX)): 41 nM

Structure (SMILES): CCn1nc2c(F)cc(N3CCN(CC(=O)N4CC(O)C4)CC3)cc2c1N(C)c1ccc(C#N)c(-c2ccc(F)cc2)n1 [Compound S-0030, 6-((2-ethyl-7-fluoro-5-(4-(2-(3-hydroxyazetidin-1-yl)-2-oxoethyl)piperazin-1-yl)-2H-indazol-3-yl)(methyl)amino)-2-(4-fluorophenyl)nicotinonitrile]
- IC50 (Autotaxin (ATX)): 407 nM

Structure (SMILES): CCc1nn2c(C)cc(N3CCN(CC(=O)N4CC(O)C4)C[C@@H]3C)nc2c1N(C)c1nc(-c2ccc(F)cc2)c(C#N)s1 [Compound S-0071, (S)-2-((2-ethyl-5-(4-(2-(3-hydroxyazetidin-1-yl)-2-oxoethyl)-2-methylpiperazin-1-yl)-7-methylpyrazolo[1,5-a]pyrimidin-3-yl)(methyl)amino)-4-(4-fluorophenyl)thiazole-5-carbonitrile]
- IC50 (Autotaxin (ATX)): 46 nM

Structure (SMILES): CCc1nn2ccc(N3CCN(CC(=O)N4CC(O)C4)CC3)nc2c1N(C)c1nc(-c2ccc(F)cc2)c(C#N)s1 [Compound S-0041, 2-((2-ethyl-5-(4-(2-(3-hydroxyazetidin-1-yl)-2-oxoethyl)piperazin-1-yl)pyrazolo[1,5-a]pyrimidin-3-yl)(methyl)amino)-4-(4-fluorophenyl)thiazole-5-carbonitrile]
- CYP3A4 TDI % @ 10 μM (CYP3A4): −4.00%
- time-dependent inhibition on CYP3A4 (conclusion) (CYP3A4): no time-dependent inhibition on CYP3A4
